Assays:
[1] = tested on: pulmonary artery pressure (PAP); assay: Rat model of acute PAH: U-44069 infusion, pulmonary artery pressure by telemetry; format: in vivo
Description: This study utilized administration of a thromboxane agonist to elevate pulmonary artery pressure (PAP) in the rat as a model for PAH. Treprostinil was administered to the rats by oral gavage (UT-15C), nose-only inhalation (Tyvaso) or in a combined oral+inhalation regimen, followed by PAP assessment.
Experimental Design: For this study, a rat model of acute PAH was developed with the ability to measure real-time PAP by telemetry from a catheter surgically implanted into the rat pulmonary artery. To induce PAH in this model, a 15 minute intravenous (IV) infusion of the thromboxane agoinst, U44069, was administered, and PAP was monitored and recorded every 5 seconds.
To establish this model, initial testing and optimization of the concentration and infusion rate of the U-44069 was performed to best achieve elevated PAP. […] Following the preliminary individual oral and inhaled treprostinil range-finding studies, a combination administration of oral+inhaled treprostinil was performed.
The animals received U-44069 (0.5 mg/mL) at a dose rate of 10 mL/kg/hr for 15 minutes for a total dose of 1.25 mg/kg/dose. The animals received 3 to 4 IV doses/session, as detailed below.
• 1. Animals were treated as follows: • 2. IV for 15 minutes • 3. Oral gavage, as soon as practicable following the 15-minute infusion • 4. 1 hour following gavage, IV for 15 minutes. • 5. 2 hours following gavage, IV for 15 minutes Dose 2, inhalation:
Animals were treated as follows: • 1. IV for 15 minutes • 2. Inhalation exposure, as soon as practicable following the 15-minute infusion • 3. Approximately 5 minutes after inhalation completion, IV for 15 minutes. • 4. 1 hour later, IV for 15 minutes Dose 3, inhalation and oral gavage:
Animals were treated as follows: • 1. IV for 15 minutes • 2. Oral gavage, as soon as practicable following the 15-minute infusion • 3. Inhalation exposure, as soon as practicable following oral gavage. All animals were exposed to the low dose (5.26 μg/kg). • 4. Approximately 5 minutes after inhalation completion, IV for 15 minutes. • 5. 1 hour later, IV for 15 minutes • 6. 2 hours after oral gavage, IV for 15 minutes for 2 animals (1 low and 1 high oral dose) Inhaled, Oral and Combination Treprostinil Dosing Results: […]

[2] = cited from earlier work
[3] = low pH (stomach); cited from earlier work

CCCCC[C@H](O)/C=C/[C@H]1[C@@H]2CO[C@@H](C2)[C@@H]1C/C=C\CCCC(=O)O [U-44069]
maximum PAP during U-44069 infusion relative to baseline ([1]; IV U-44069 0.5 mg/mL, 10 mL/kg/hr for 15 minutes, all occasions except animal 2001): at least 150 % of the baseline

CCCCC[C@H](O)/C=C/[C@@H]1[C@H]2C/C(=C/CCCC(=O)O)O[C@H]2C[C@H]1O [prostacyclin]
half-life in the blood [2]: 3 to 5 min
stability at low pH [3]: inactivated by a low pH

CCCCC[C@H](O)CC[C@@H]1[C@H]2Cc3cccc(OCC(=O)O)c3C[C@H]2C[C@H]1O [treprostinil]
PAP reduction when oral treprostinil added to low dose inhaled treprostinil ([1]; combination dosing regimen, in magnitude or duration): additional PAP reduction was observed
PAP following inhalation exposure (immediately post dosing) ([1]; inhalation 5.26, 10.6 or 34.1 μg/kg/day, all dose levels, during U-44069 infusion): approximately 120 % the baseline
PAP at 1 hr post dosing compared to IPD values ([1]; inhalation 5.26, 10.6 or 34.1 μg/kg/day, additional U-44069 injection 1 hour after inhalation): significantly increased
PAP reduction at IPD, combination dosing Group 3 ([1]; low dose inhaled (5.26 μg/kg/day) + high oral gavage, versus individual high dose inhalation (34.1 μg/kg/day), sustained to 1 hr PD): equivalent (#3001) or greater (#3002)
PAP reduction, combination dosing Group 1 ([1]; low dose inhaled (5.26 μg/kg/day) + low (5 mg/kg/dose) oral gavage, versus low dose inhaled alone): sustained effect to 1 hr
PAP decrease at IPD, combination dosing Group 2 ([1]; low dose inhaled (5.26 μg/kg/day) + mid (10 mg/kg/dose) oral gavage, versus individual mid-dose inhalation (10.6 μg/kg/day)): equivalent or greater
PAP after oral gavage ([1]; oral gavage 5, 10 or 15 mg/kg/dose, 1 hr PD and 2 hr PD): decreases in PAP were generally observed in a dose-related fashion
PAP during the PAH condition, any route of administration ([1]; oral gavage, nose-only inhalation or combined): generally reduce PAP
